Test results from PubChem BioAssay (NCI).
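Each compound was tested at five concentrations against cells in 96-well plates for 48 hours. Abbreviation: GI50, concentration required for 50% inhibition of growth. Definition used: TGI = concentration required for complete inhibition of growth.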

Tests used:
Test in all cases: NCI anticancer screen, dose series, 48 h
[1] = test system: MALME-3M melanoma
[2] = test system: PC-3 prostate
[3] = test system: TK-10 renal
[4] = test system: OVCAR-8 ovarian
[5] = test system: HCT-116 colon
[6] = test system: SF-295 CNS
[7] = test system: T-47D breast
[8] = test system: UO-31 renal
[9] = test system: MOLT-4 leukemia
[10] = test system: KM12 colon

Compound	GI50 [1]	TGI [1]	GI50 [2]	TGI [2]	GI50 [3]	TGI [3]	GI50 [4]	TGI [4]	GI50 [5]	TGI [5]	GI50 [6]	TGI [6]	GI50 [7]	TGI [7]	GI50 [8]	TGI [8]	GI50 [9]	TGI [9]	GI50 [10]	TGI [10]
O=C(CC(=O)c1ccccc1)c1ccccc1	23.2 µM	64.1 µM	25.9 µM	> 100 µM	20.5 µM	93.7 µM	20.4 µM	> 100 µM	16.6 µM	> 100 µM	17.3 µM	99.7 µM	14.9 µM	46.1 µM	36.5 µM	> 100 µM	17.3 µM	> 100 µM	3.98 µM	> 100 µM
Cc1cc(O)c(C(c2ccncc2)c2c(O)cc(C)[nH]c2=O)c(=O)[nH]1		> 100 µM		> 100 µM		> 100 µM		> 100 µM		> 100 µM		> 100 µM		> 100 µM		> 100 µM		> 100 µM		> 100 µM
CCCCCCNC(=O)Oc1ccc(/C(=C(\C)c2ccccc2)c2ccc(OCCN(CC)CC)cc2)cc1	3.59 µM	10.1 µM	2.81 µM	9.21 µM	6.74 µM	13.5 µM	6.02 µM	12.9 µM	2.08 µM	7.39 µM	2.11 µM	7.38 µM	1.07 µM	8.17 µM	1.51 µM	6.09 µM	1.78 µM	7.79 µM	2.84 µM	10 µM
O=c1c2c3c(sc2n2c(-c4ccc(Br)cc4)nnc2n1Cc1ccccc1)CCCC3	3.19 µM	19.5 µM	2.97 µM	16.6 µM	7.94 µM	21.8 µM	15.5 µM	37 µM	9.56 µM	22.7 µM	2.42 µM	7.51 µM	4.42 µM	16.8 µM	11.3 µM	41.1 µM	3.84 µM	91.6 µM	10.2 µM	24.7 µM
CN1CCN(CCOc2ccc(-c3cnc4c(-c5ccc(F)cc5)cnn4c3)cc2)CC1	1.62 µM	3.13 µM	1.7 µM	3.82 µM	1.82 µM	3.5 µM	2.14 µM	5.08 µM	1.55 µM	3.05 µM	1.73 µM	3.23 µM	1.49 µM	3.86 µM	1.31 µM	2.93 µM	1.56 µM	3.59 µM	1.06 µM	2.36 µM
CCOc1cc(C(C)(C)C)ccc1C1=N[C@@](C)(c2ccc(Cl)cc2)[C@@](C)(c2ccc(Cl)cc2)N1C(=O)N1CCN(CCS(C)(=O)=O)CC1	0.535 µM	6.07 µM	2.01 µM	6.25 µM	3.12 µM	10.3 µM	4.44 µM	26.5 µM	0.804 µM	4.73 µM	3.15 µM	10.5 µM	3.7 µM	57.3 µM	0.361 µM	1.63 µM	0.751 µM	3.96 µM	3.33 µM	11.4 µM
CCOC(=O)c1ccccc1-c1c2ccc(=[N+](C)C)cc-2oc2cc(N(C)C)ccc12	0.333 µM	7.62 µM	0.0778 µM	12.8 µM	1.06 µM	25.2 µM	0.195 µM	> 22.8 µM	0.257 µM	13.1 µM	0.278 µM	1.62 µM	0.104 µM	19.8 µM	2.18 µM	8.1 µM	0.488 µM	35.7 µM	0.196 µM	10.9 µM
COc1ccc(NC(=O)/C=C(C)/C=C/C=C(C)\C=C\C2=C(C)CCCC2(C)C)cc1	41.2 µM	> 100 µM	72.6 µM	> 100 µM	> 100 µM	> 100 µM	> 100 µM	> 100 µM	28.6 µM	> 100 µM	35.7 µM	> 100 µM	3.79 µM	43.1 µM	> 100 µM	> 100 µM	55.1 µM	> 100 µM	62.8 µM	> 100 µM
Cc1cc(S(=O)(=O)Nc2nc3cc(Cl)ccc3o2)c(SCc2ccccc2)cc1Cl	19.3 µM	48.5 µM	21.5 µM	43.5 µM	25.8 µM	55.1 µM	4.18 µM	26.1 µM	18.7 µM	42.7 µM	18.7 µM	46.1 µM	17.8 µM	39.7 µM	22.4 µM	48.5 µM	37.8 µM	> 100 µM	18.9 µM	45.5 µM
N=C(N)SCCc1ccccn1		> 100 µM		> 100 µM		> 100 µM		> 100 µM		> 100 µM		> 100 µM		> 100 µM		> 100 µM		> 100 µM		> 100 µM
